Reference: patent EP0485219B1, “Medicaments for preventing and treating circulatory organ diseases containing spiro-3-heteroazolidine compounds” (SANWA KAGAKU KENKYUSHO CO., LTD., priority 1990, dated 1992)

What was measured:
[1] = tested on: right atrium; assay: Action on extracted guinea pigs' hearts: right atrium sample (heart rate); design: species or system Hartley guinea pigs; details: for Heart Rates 10^-4(M): suppression at 10^-4 M; for Heart Rates 10^-5(M): suppression at 10^-5 M
Source text: (§1) Stunned by receiving a blow on the heads, Hartley guinea pigs (weighing 300-400 g) were fixed on the back regions to extract their hearts. Each of the extracted hearts was placed in a beaker containing the same Krebs-Henseleit solution as used in Test Example 4 and supplied with 95% O₂-5% CO₂ gases, thereby stripping it of blood deposits, and was then passed into a sample forming glass vessel. This vessel was previously filled with a Krebs-Henseleit solution and the above gaseous mixture continued to be supplied thereto during preparing the sample.
(§2) In order to prepare the sample, the right and left atria were cut out of the ventricular muscle along the atriventricular sulcus from the center of both the right and left auricles.
The thus extracted right atrium was suspended in a Magnus tube with a tension of 0.2 to 0.3 g, said tube supplied with 95% O₂ - 5% CO₂ gases, containing 10 ml of a Krebs-Henseleit solution and maintained at 32±1°C. The contraction of the sample was recorded on a recorder through an FD pickup simultaneously with counting and recording the beat with an instantaneous cardiograph unit.
(§3) The actions of the present and control compounds on the right (counting the heart rate) and left (measuring the systole force) atria are reported below.

[2] = tested on: left atrium; assay: Action on extracted guinea pigs' hearts: left atrium sample (systole force); design: species or system Hartley guinea pigs; details: electrically stimulated; for Systole Forces 10^-4(M): suppression at 10^-4 M; for Systole Forces 10^-5(M): suppression at 10^-5 M
Source text: as §1, §2
The extracted left atrium was fixed with a micro wire clamp through both the auricles in a Magnus tube supplied with 95% O₂ - 5% CO₂ gases, containing 30 ml of a Krebs-Henseleit solution and maintained at a solution temperature of 32±1°C, and then suspended therein under a checking tension of ca. 0.25 g. While a platinum bipolar electrode attached to the above-mentioned micro wire clamp was in contact with the atrium, stimuli were given to it by 1-Hz, 2-msec. and 10-V rectangular waves derived through an electrical stimulator and an isolator to record the movement of said atrium with an FD pickup connected with it through silk thread.
as §3

[3] = tested on: platelet aggregation; assay: Ex vivo action on inhibiting platelet aggregation after intravenous administration; type: in vivo, rat; details: inhibition of platelet aggregation relative to control; 30.0 mg/kg intravenously, blood gathered five minutes after; inducer collagen
Description: Five minutes after the test compound had been intravenously administered to the tail of a rat, blood was gathered from the descending aorta of the rat which was lightly etherized. Added to this blood was citric acid (3.8% sodium citrate) in a volume ratio of 1/10.
The thus treated blood was centrifuged at 1500 rpm for 5 minutes to obtain a supernatant fluid in the form of PRP. The residues were then again centrifuged at 4°C and 3000 rpm for 10 minutes to obtain a supernatant fluid in the form of PPP. For the platelet aggregation test, NAB HEMA TRACER 601 (Model PAT-60 made by Niko Bioscience Co., Ltd.) was used. […] of PRP were put in a PRP cuvette having a stirrer bar with the transmittance set at 0%, while 300 µl of PPP were put in a PPP cuvette with the transmittance set at 100%. After 1-minute preincubation, 20 µl of an aggregation inducer (collagen or ADP) were introduced.
A control group, to which dimethylacetamide and tartaric acid in a ratio of 2/3 were given in a quantity of 1 ml/kg, was treated similarly to the test group. Upon the addition of the aggregation inducer, a maximum transmittance change was read to find a platelet aggregation change in %. […] Table 3 sets out the results, from it is noted that the present compounds have a significant action on inhibiting platelet aggregation.

Structure (SMILES)	Heart Rates 10^-4(M) [1]	Heart Rates 10^-5(M) [1]	Systole Forces 10^-4(M) [2]	Systole Forces 10^-5(M) [2]	inhibition of collagen-induced platelet aggregation [3]
CC(C)NCC(O)COc1cccc2ccccc12 (stereo not shown) [A, propranolol]	++ (++ indicates 20% or more suppression)	++ (++ indicates 20% or more suppression)	++ (++ indicates 20% or more suppression)	++ (++ indicates 20% or more suppression)	–
COc1ccc2c(c1)c(CC(=O)O)c(C)n2C(=O)c1ccc(Cl)cc1 [Indomethacin]	–	–	–	–	49%
CC(=O)Oc1ccccc1C(=O)O [Aspirin]	–	–	–	–	77%
CC(C(O)c1ccc(O)cc1)N1CCC(Cc2ccccc2)CC1 (stereo not shown) [B, ifenprodil]	++ (++ indicates 20% or more suppression)	++ (++ indicates 20% or more suppression)	+ (+ 10-20% suppression)	- (- 0% suppression)	–
